The values that follow come from patent US11999727B2 (Tango Therapeutics, Inc., priority 2020, dated 2024).

Assay [1] has as its target T1, PRMT5 (Homo sapiens, UniProt O14744).
T1 construct: purchased Viva (custom protein)
Put plainly: PRMT5 biochemical IC50 assay with SAM as cofactor. To be noted: PRMT5, SAM as cofactor; read-out: SAM IC50.

Assay [2] concerns the target T1, PRMT5. Put plainly: PRMT5 biochemical IC50 assay with no cofactor. To be noted: PRMT5, no cofactor. The text has this: Table 1 indicates IC50 values (μM) against PRMT5 for exemplary compounds in the presence of SAM as cofactor, with no cofactor, and with MTA as cofactor, respectively (columns 4-6). […] Ki values can be calculated from the IC50 values as described in the Examples section. As detailed in the Examples section, for the assay performed in the presence of SAM, IC50=Ki×1.5 (Ki=IC50/1.5).

Assay [3] has as its target T1, PRMT5. Put plainly: PRMT5 biochemical IC50 assay with MTA as cofactor. To be noted: PRMT5, MTA as cofactor; read-out: MTA IC50.
The test system of assay [4] is HAP1 MTAP-deleted cell line. Put plainly: Viability assay, MTAP-deleted cell line. Type of assay: cell-based. To be noted: Homo sapiens, read-out: HAP1 MTAP deleted viability. From the text: Table 1 additionally indicates IC50 values in a viability assay for the MTAP-deleted cell line (column 10), indicating the effect of treatment with compound on cell survival.

For assay [5], the system named is HAP1 MTAP-intact cell line. Put plainly: SDMA in-cell western assay, HAP1 MTAP-intact. Type of assay: cell-based. The following applies: Homo sapiens, HAP1, SDMA in-cell western, HAP1 MTAP-intact; read-out: MTAP HAP1 intact IC50. An outline of the steps:
(§1)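 IC50 values come from SDMA signal quantified by in-cell western in two HAP1 lines, one with native MTAP levels and one lacking MTAP.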

In assay [6] the test system is HAP1 MTAP-deleted cell line. Put plainly: SDMA in-cell western assay, HAP1 MTAP-deleted. To be noted: for IC50: Homo sapiens, HAP1, SDMA in-cell western, HAP1 MTAP-deleted; for MTAP intact/deleted ratio: SDMA in-cell western. Type of assay: cell-based. An outline of the steps: as §1
[7] abbreviates: HAP1, viability assay, MTAP-deleted cell line.
[8] abbreviates: read-out: HAP1 MTAP deleted IC50.
Where [9] appears, read: IC50 ratio HAP1 MTAP-intact / HAP1 MTAP-deleted.
[10] abbreviates: read-out: HAP 1 MTAP deleted IC50.
Setting [11] is: HAP1, viability IC50, MTAP-deleted cell line.
[12] abbreviates: HAP1, viability assay, HAP1 MTAP-deleted.
The mark [13] stands for this setting: read-out: No Cofactor/ rel IC50.
Where [14] appears, read: HAP1, viability, HAP1 MTAP-deleted cell line.

T1 sequence (O14744 whole entry): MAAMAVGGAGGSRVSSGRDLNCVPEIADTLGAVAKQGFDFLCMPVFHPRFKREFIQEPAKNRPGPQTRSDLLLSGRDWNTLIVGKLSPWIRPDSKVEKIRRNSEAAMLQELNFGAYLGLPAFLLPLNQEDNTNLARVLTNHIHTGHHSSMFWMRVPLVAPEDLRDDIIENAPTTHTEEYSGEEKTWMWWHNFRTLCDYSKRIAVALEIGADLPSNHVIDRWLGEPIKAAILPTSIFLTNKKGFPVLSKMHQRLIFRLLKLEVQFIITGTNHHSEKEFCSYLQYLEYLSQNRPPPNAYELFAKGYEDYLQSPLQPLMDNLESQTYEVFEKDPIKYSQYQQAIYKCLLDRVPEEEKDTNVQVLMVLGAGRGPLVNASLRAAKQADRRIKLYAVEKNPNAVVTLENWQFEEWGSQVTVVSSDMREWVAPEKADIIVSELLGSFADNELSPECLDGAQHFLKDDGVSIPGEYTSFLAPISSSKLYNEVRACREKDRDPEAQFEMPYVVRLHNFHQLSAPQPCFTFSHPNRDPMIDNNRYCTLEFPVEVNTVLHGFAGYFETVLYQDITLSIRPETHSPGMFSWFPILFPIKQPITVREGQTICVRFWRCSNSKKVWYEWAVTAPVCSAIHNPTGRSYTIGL
T1 sequence (Q9BQA1 whole entry partner): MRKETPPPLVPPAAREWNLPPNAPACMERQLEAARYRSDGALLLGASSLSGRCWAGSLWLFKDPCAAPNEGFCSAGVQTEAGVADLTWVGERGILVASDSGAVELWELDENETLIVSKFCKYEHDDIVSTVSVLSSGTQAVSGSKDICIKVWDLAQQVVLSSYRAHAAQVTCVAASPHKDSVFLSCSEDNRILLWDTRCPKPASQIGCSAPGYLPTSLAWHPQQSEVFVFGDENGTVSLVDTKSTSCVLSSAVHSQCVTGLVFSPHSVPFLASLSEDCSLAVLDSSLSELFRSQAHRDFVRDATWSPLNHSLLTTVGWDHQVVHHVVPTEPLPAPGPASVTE

Take `C[C@@H]1C[C@H](C)[C@@H](c2ccccc2)N(C(=O)C(=O)Nc2cncc(C(N)=O)c2)C1` (single isomer, unassigned) [Compound 311, 5-(2-(3,5-dimethyl-2-phenylpiperidin-1-yl)-2-oxoacetamido)nicotinamide]: the IC50 on PRMT5 [1] is 0.05 to 0.5 µM; at PRMT5 [2] (read-out: No Cofactor/rel IC50), 0.05 to 0.5 µM; on PRMT5 [3] it was less than 0.05 µM; in assay [4] (setting [7]), more than 10 µM; in assay [5] it was more than 1 µM; in assay [6] (setting [8]), 0.1 to 1 µM. The MTAP intact/deleted ratio entry in assay [6] (setting [9]) is listed as “A (an IC50 ratio greater than or equal to 10 fold)”.

Take `CNc1cccc([C@@H]2CC[C@@H](C)CN2C(=O)C(=O)Nc2cnc(N)c(C)c2)c1` (single isomer, unassigned) [Compound 449]: the IC50 on PRMT5 [1] is 0.05 to 0.5 µM; at PRMT5 [2] (read-out: No Cofactor/rel IC50), 0.05 to 0.5 µM; at PRMT5 [3], less than 0.05 µM; in assay [4] (setting [7]) it was less than 1 µM; in assay [5] it was 0.1 to 1 µM; in assay [6] (setting [8]), less than 0.1 µM. Moreover, the MTAP intact/deleted ratio result in assay [6] (setting [9]) is reported as “A (an IC50 ratio greater than or equal to 10 fold)”.

For `CCc1ccc([C@H]2CC[C@H](C)CN2C(=O)C(=O)Nc2cnc(N)c(C)c2)cn1` (single isomer, unassigned) [Compound 1016], the IC50 is more than 0.5 µM at PRMT5 [1]; more than 0.5 µM on PRMT5 [2] (read-out: No Cofactor/rel IC50); more than 0.5 µM at PRMT5 [3]; more than 10 µM in assay [4] (setting [7]); more than 1 µM in assay [5]; more than 1 µM in assay [6] (setting [10]). In addition, in assay [6] (setting [9]), the MTAP intact/deleted ratio entry is “C (an IC50 ratio of less than 3 fold)”.

Regarding `CCc1cc(NC(=O)C(=O)N2C[C@@H](C)CC[C@@H]2c2ccc3[nH]ncc3c2)cnc1N` (single isomer, unassigned) [Compound 589], the IC50 was less than 0.05 µM on PRMT5 [1]; less than 0.05 µM on PRMT5 [2] (read-out: No Cofactor/rel IC50); less than 0.05 µM at PRMT5 [3]; less than 1 µM in assay [4] (setting [11]); 0.1 to 1 µM in assay [5]; less than 0.1 µM in assay [6] (setting [10]). The MTAP intact/deleted ratio result in assay [6] (setting [9]) is “A (an IC50 ratio greater than or equal to 10 fold)”.

In the case of `C[C@H]1CC[C@H]([C@H]2CC[C@H](O)CC2)N(C(=O)C(=O)Nc2cncc(C(N)=O)c2)C1` (single isomer, unassigned) [Compound 394], the IC50 at PRMT5 [1] is 0.05 to 0.5 µM; on PRMT5 [2] (read-out: No Cofactor/rel IC50), 0.05 to 0.5 µM; at PRMT5 [3] it was less than 0.05 µM; in assay [4] (setting [7]) it was 1 to 10 µM; in assay [5] it was more than 1 µM; in assay [6] (setting [8]) it was 0.1 to 1 µM. Besides, the MTAP intact/deleted ratio result in assay [6] (setting [9]) was “A (an IC50 ratio greater than or equal to 10 fold)”.

With `CO[C@@H]1C[C@@H](c2ccc3scnc3c2)N(C(=O)C(=O)Nc2cnc(N)c(C)c2)C[C@@H]1C` (single isomer, unassigned) [Compound 1130], the IC50 on PRMT5 [1] is more than 0.5 µM; on PRMT5 [2] (read-out: No Cofactor/rel IC50), more than 0.5 µM; at PRMT5 [3], more than 0.5 µM; in assay [4] (setting [7]), more than 10 µM; in assay [5], more than 1 µM; in assay [6] (setting [8]), more than 1 µM.

With `Cc1cc(NC(=O)C(=O)N2C[C@@H](C)CC[C@@H]2c2ccc3sc([C@H]4CCN(C)C(C)(C)C4)nc3c2)cnc1C` (single isomer, unassigned) [Compound 1135], the IC50 at PRMT5 [1] was less than 0.05 µM; on PRMT5 [2] (read-out: No Cofactor/rel IC50), less than 0.05 µM; at PRMT5 [3], less than 0.05 µM; in assay [4] (setting [7]), less than 1 µM; in assay [5], 0.1 to 1 µM; in assay [6] (setting [8]) it was less than 0.1 µM. For the same molecule, the MTAP intact/deleted ratio entry in assay [6] (IC50 ratio HAP1 MTAP-intact vs HAP1 MTAP-deleted) was “A (an IC50 ratio greater than or equal to 10 fold)”.

As for `Cc1cc(NC(=O)C(=O)N2C[C@H](C)C(F)(F)C[C@H]2c2ccc(F)cc2)cnc1N` (single isomer, unassigned) [Compound 777], the IC50 at PRMT5 [1] was more than 0.5 µM; on PRMT5 [2] (read-out: No Cofactor/rel IC50), more than 0.5 µM; on PRMT5 [3], more than 0.5 µM; in assay [4] (setting [12]) it was more than 10 µM; in assay [5] it was more than 1 µM; in assay [6] (setting [8]), more than 1 µM. The MTAP intact/deleted ratio result in assay [6] (setting [9]) is given as “B (an IC50 ratio greater than or equal to 3 fold but lower than 10 fold)”.

With `Cc1cncc(NC(=O)C(=O)N2C[C@H](C)CC[C@H]2c2cccc(Cl)c2)c1` (racemic) [Compound 13, 2-[(2R,5S)-2-(3-chlorophenyl)-5-methyl-1-piperidyl]-N-(5-methyl-3-pyridyl)-2-oxo-acetamide], the IC50 on PRMT5 [1] is more than 0.5 µM; on PRMT5 [2] (setting [13]) it was more than 0.5 µM; on PRMT5 [3], 0.05 to 0.5 µM; in assay [4] (setting [7]), more than 10 µM; in assay [5], more than 1 µM; in assay [6] (setting [10]) it was more than 1 µM. The “MTAP intact/deleted ratio” value in assay [6] (setting [9]) is recorded as “C (an IC50 ratio of less than 3 fold)”.

On to `C[C@H]1CC[C@H](c2ccc(-c3cc[nH]n3)cc2)N(C(=O)C(=O)Nc2cncc(C(N)=O)c2)C1` (single isomer, unassigned) [Compound 626], for which the IC50 is 0.05 to 0.5 µM at PRMT5 [1]; 0.05 to 0.5 µM on PRMT5 [2] (read-out: No Cofactor/rel IC50); 0.05 to 0.5 µM on PRMT5 [3]; 1 to 10 µM in assay [4] (setting [11]); more than 1 µM in assay [5]; less than 0.1 µM in assay [6] (setting [10]). In addition, in assay [6] (setting [9]), the MTAP intact/deleted ratio result is reported as “A (an IC50 ratio greater than or equal to 10 fold)”.

In the case of `CNC(=O)c1ccc([C@H]2CC[C@H](C)CN2C(=O)C(=O)Nc2cnc(N)c(C)c2)s1` (single isomer, unassigned) [Compound 859], the IC50 at PRMT5 [1] is 0.05 to 0.5 µM; on PRMT5 [2] (read-out: No Cofactor/rel IC50), less than 0.05 µM; at PRMT5 [3] it was less than 0.05 µM; in assay [4] (setting [12]), less than 1 µM; in assay [5], 0.1 to 1 µM; in assay [6] (setting [8]), less than 0.1 µM. Besides, the MTAP intact/deleted ratio entry in assay [6] (setting [9]) is “A (an IC50 ratio greater than or equal to 10 fold)”.

In the case of `Cc1cc(NC(=O)C(=O)N2C[C@@H](C)CC[C@@H]2c2ccc3sc(CCN4CCCC4)nc3c2)cnc1N` [Compound 1296, N-(6-amino-5-methylpyridin-3-yl)-2-((2R,5S)-5-methyl-2-(2-(2-(pyrrolidin-1-yl)ethyl)benzo[d]thiazol-5-yl)piperidin-1-yl)-2-oxoacetamide], the IC50 was less than 0.05 µM on PRMT5 [1]; less than 0.05 µM at PRMT5 [2] (setting [13]); less than 0.05 µM on PRMT5 [3]; less than 1 µM in assay [4] (setting [14]); less than 0.1 µM in assay [5]; less than 0.1 µM in assay [6] (setting [10]). Also, the “MTAP intact/deleted ratio” value in assay [6] (setting [9]) was “A (an IC50 ratio greater than or equal to 10 fold)”.

Consider `Cc1cc(NC(=O)C(=O)N2C[C@H](C)CC[C@H]2c2ccc(CO)cc2)cnc1N` (single isomer, unassigned) [Compound 802], for which the IC50 at PRMT5 [1] was more than 0.5 µM; on PRMT5 [2] (read-out: No Cofactor/rel IC50) it was more than 0.5 µM; on PRMT5 [3], more than 0.5 µM; in assay [4] (setting [12]) it was more than 10 µM; in assay [5], more than 1 µM; in assay [6] (setting [8]), more than 1 µM. Also, the MTAP intact/deleted ratio entry in assay [6] (setting [9]) is on record as “B (an IC50 ratio greater than or equal to 3 fold but lower than 10 fold)”.

On to `CCc1cc(NC(=O)C(=O)N2C[C@@H](C)CC[C@@H]2c2ccc3sc([C@H]4CN(C)C(=O)CN4C)nc3c2)cnc1N` [Compound 1385], for which the IC50 on PRMT5 [1] was 0.05 to 0.5 µM; at PRMT5 [2] (setting [13]) it was less than 0.05 µM; at PRMT5 [3] it was less than 0.05 µM; in assay [4] (setting [14]), less than 1 µM; in assay [5], less than 0.1 µM; in assay [6] (setting [10]), less than 0.1 µM. The “MTAP intact/deleted ratio” value in assay [6] (setting [9]) is recorded as “A (an IC50 ratio greater than or equal to 10 fold)”.
